# Experimental data as given in publication PMC7411887, “New Paracyclophanylthiazoles with Anti-Leukemia Activity: Design, Synthesis, Molecular Docking, and Mechanistic Studies” (Molecules, 2020).
# Entries after “also recorded” stand apart in the source; their conditions may differ. Like-named read-outs stand apart in the source and are kept apart here.
# Experiments:
# SR cancer cell line = assay: Mitochondrial membrane potential assay; assay type: cell-based, human
# leukemia SR cells = assay: Cell cycle analysis, propidium iodide flow cytometry; conditions: for DNA Content % %G0-G1 / DNA Content % %G2-M / DNA Content % %Pre G1 / DNA Content % %S: at IC50, 24 h
# Bcl-2 = Bcl-2 assay on leukemia SR cell line; assay type: cell-based, human; conditions: for Bcl2 Concentration: ± SD
# Procedure: (§1) 17. Empty the contents of the wells and wash by adding 400 μL of wash solution to every
# (§2) 18. Repeat the wash 4 more times for a total of 5 washes.
# (§3) 19. After the final wash, empty or aspirate the wells and firmly tap the plate on a lint free
# paper towel to remove any remaining wash buffer.
# (§4) 20. Pipet 100 μL of Substrate Solution into each well.
# (§5) 21. Incubate for 30 minutes at room temperature on a plate shaker at ~500 rpm.
# (§6) 1. Mix all reagents thoroughly without foaming before use.
# (§7) 3. Take caution not to scratch the surface of the microwells.
# 5. Use the microwell strips immediately after washing or place upside down on a wet
# absorbent paper for not longer than 15 minutes.
# (§8) Prepare standard (1:2 dilution) in duplicate ranging from 32
# 8. Add 50 μL of diluted biotin-conjugate to all wells, including the blank wells.
# 10. Remove plate cover and empty the wells.
# 13. Remove plate cover and empty the wells.
# Proceed to the next step.
# available on a rotator set at 100 rpm. Avoid direct exposure to intense light.
# BAX = BAX assay on leukemia SR cell line; assay type: cell-based, human; conditions: for BAX Concentration: ± SD
# Procedure: 19. Read the concentrations for unknown samples and controls from the standard curve.
# All standards, controls and samples should be run in duplicate. […]
# desiccant back into the pouch and seal the ziploc. Store unused wells at 4 °C.
# 4. Pipet 100 μL of the Samples into the appropriate wells.
# 7. Empty the contents of the wells and wash by adding 400 μL of wash solution to every well.
# 8. Repeat the wash 4 more times for a total of 5 washes.
# 9. After the final wash, empty or aspirate the wells and firmly tap the plate on a lint free paper towel to remove any remaining wash buffer.
# 10. Pipet 100 μL of yellow Antibody into each well, except the Blank.
# 12. Empty the contents of the wells and wash by adding 400 μL of wash solution to every
# 13. Repeat the wash 4 more times for a total of 5 washes.
# 14. After the final wash, empty or aspirate the wells and firmly tap the plate on a lint free
# as §1, §2, §3, §4, §5, §6, §7
# 5. Use the microwell strips immediately after washing or place upside down on a wet absorbent paper for not longer than 15 minutes.
# as §8
# T-47D = assay: NCI five-dose assay; assay type: cell-based; conditions: Breast Cancer T-47D
# SNB-75 = assay: NCI five-dose assay; assay type: cell-based; conditions: CNS Cancer SNB-75
# MDA-MB-468 = assay: NCI five-dose assay
# HOP-62 = assay: NCI five-dose assay; assay type: cell-based, human; conditions: Non-Small-Cell Lung Cancer HOP-62
# Leukemia subpanel = assay: NCI five-dose assay, subpanel; assay type: cell-based, human; conditions: for GI50: Homo sapiens
# Procedure: (§9) The outcomes were used to form log concentration vs. percentage growth inhibition curves and three response parameters (GI50, total growth inhibition (TGI), and LC50) were calculated for each cell line (Table 2).
# (§10) The criterion for selectivity of a compound depends upon the ratio obtained by dividing the full-panel MID (the average sensitivity of all cell lines toward the test agent) (μM) by the individual subpanel MIDs (μM).
# CNS Cancer subpanel = assay: NCI five-dose assay, subpanel; assay type: cell-based, human
# Procedure: as §9, §10
# Ovarian Cancer subpanel = assay: NCI five-dose assay, subpanel; assay type: cell-based, human; conditions: for GI50: Homo sapiens
# Procedure: as §9, §10
# Melanoma subpanel = assay: NCI five-dose assay, subpanel; assay type: cell-based, human
# Procedure: as §9, §10
# Renal Cancer subpanel = assay: NCI five-dose assay, subpanel; assay type: cell-based, human
# Procedure: as §9, §10
# [1] = system: Non-Small-Cell Lung Cancer subpanel; assay: NCI five-dose assay, subpanel; assay type: cell-based, human
# Procedure: as §9, §10
# Colon Cancer subpanel = assay: NCI five-dose assay, subpanel; assay type: cell-based, human; conditions: for GI50: Homo sapiens
# Procedure: as §9, §10
# Prostate Cancer subpanel = assay: NCI five-dose assay, subpanel; assay type: cell-based, human
# Procedure: as §9, §10
# Breast Cancer subpanel = assay: NCI five-dose assay, subpanel; assay type: cell-based, human; conditions: for GI50: Homo sapiens
# Procedure: as §9, §10
# HCT-116 = assay: NCI five-dose assay; assay type: cell-based; conditions: Colon Cancer HCT-116
# HOP-92 = assay: NCI five-dose assay; assay type: cell-based; conditions: Non-Small-Cell Lung Cancer HOP-92
# [2] = Homo sapiens, read-out: GI50 Concentration/Cell Line
# [3] = Non-Small-Cell Lung Cancer subpanel
structure (smiles),measurement,setting,value
"COc1cc2c(c(OC)c1OC)-c1ccc(OC)c(=O)cc1[C@@H](NC(C)=O)CC2 [Colchicine, colchicine, reference compound]",mitochondrial membrane potential % Live cells,SR cancer cell line,65.04%
same,mitochondrial membrane potential ΔΨm % Apoptic cells,SR cancer cell line,34.96%
same,shift in fluorescence (Δψmt) compared with control cells,SR cancer cell line,significant results
same,DNA Content % Comment,leukemia SR cells,cell growth arrest (G2/M)
same,DNA Content % %G0-G1,leukemia SR cells,26.58%
same,DNA Content % %G2-M,leukemia SR cells,48.15 ± 1.000 %
same,DNA Content % %Pre G1,leukemia SR cells,36.24%
same,DNA Content % %S,leukemia SR cells,25.27%
same,Bcl2 Concentration,Bcl-2,4.101 ± 0.1441 ng/mL
same,BAX Concentration,BAX,341.8 ± 4.310 pg/mL
COC(=O)C=C1SC(=NNC(=O)c2cc3ccc2CCc2ccc(cc2)CC3)N(c2ccccc2)C1=O [Compound 3a],TGI Concentration/Cell Line,T-47D,3.65 µM
same,GI50,"T-47D; Homo sapiens, T47D, read-out: GI50 Concentration/Cell Line",1.54 µM
same,CC50,"T-47D; Homo sapiens, T47D, read-out: LC50 (the source's name)",8.68 µM
same,TGI Concentration/Cell Line,SNB-75,>100 µM
same,LC50,SNB-75; Homo sapiens,> 100 µM
same,GI50,SNB-75; [2],5.44 µM
same,TGI Concentration/Cell Line,MDA-MB-468; Breast Cancer MDA-MB-468,3.74 µM
same,GI50,"MDA-MB-468; Homo sapiens, MDA-MB-468, read-out: GI50 Concentration/Cell Line",1.84 µM
same,CC50,"MDA-MB-468; Homo sapiens, MDA-MB-468, read-out: LC50",7.61 µM
same,mitochondrial membrane potential % Live cells,SR cancer cell line,68.8%
same,mitochondrial membrane potential ΔΨm % Apoptic cells,SR cancer cell line,31.2%
same,shift in fluorescence (Δψmt) compared with control cells,SR cancer cell line,non-significant shift
same,GI50,HOP-62; [2],2.68 µM
same,TGI Concentration/Cell Line,HOP-62,6.97 µM
same,GI50,"Leukemia subpanel; Leukemia subpanel average, read-out: GI50 Subpanel MID^b",2.72 µM
same,GI50,"Leukemia subpanel; leukemia subpanel, read-out: GI50 values range, subpanel",2.15 to 3.15 µM
same,GI50 Selectivity Ratio (MID^a: MID^b),Leukemia subpanel; Leukemia subpanel,0.88
same,TGI Subpanel MID^d,Leukemia subpanel; Leukemia subpanel average,81.1 µM
same,GI50 Selectivity Ratio (MID^a: MID^b),CNS Cancer subpanel; CNS Cancer subpanel,0.88
same,TGI Selectivity Ratio (MID^c: MID^d),CNS Cancer subpanel; CNS Cancer subpanel,1.08
same,TGI Subpanel MID^d,CNS Cancer subpanel; CNS Cancer subpanel average,19.5 µM
same,GI50,"CNS Cancer subpanel; Homo sapiens, CNS Cancer subpanel average, read-out: GI50 Subpanel MID^b",2.71 µM
same,GI50,"Ovarian Cancer subpanel; Ovarian Cancer subpanel average, read-out: GI50 Subpanel MID^b",2.59 µM
same,GI50,"Ovarian Cancer subpanel; ovarian cancer subpanel, read-out: GI50 values range, subpanel",1.66 to 3.55 µM
same,GI50 Selectivity Ratio (MID^a: MID^b),Ovarian Cancer subpanel; Ovarian Cancer subpanel,0.92
same,TGI Selectivity Ratio (MID^c: MID^d),Ovarian Cancer subpanel; Ovarian Cancer subpanel,1.14
same,TGI Subpanel MID^d,Ovarian Cancer subpanel; Ovarian Cancer subpanel average,18.5 µM
same,GI50,"Melanoma subpanel; Homo sapiens, Melanoma subpanel average, read-out: GI50 Subpanel MID^b",3.77 µM
same,GI50 Selectivity Ratio (MID^a: MID^b),Melanoma subpanel; Melanoma subpanel,0.63
same,TGI Selectivity Ratio (MID^c: MID^d),Melanoma subpanel; Melanoma subpanel,0.58
same,TGI Subpanel MID^d,Melanoma subpanel; Melanoma subpanel average,36.5 µM
same,GI50,"Renal Cancer subpanel; Homo sapiens, Renal Cancer subpanel average, read-out: GI50 Subpanel MID^b",1.86 µM
same,GI50 Selectivity Ratio (MID^a: MID^b),Renal Cancer subpanel; Renal Cancer subpanel,1.28
same,TGI Selectivity Ratio (MID^c: MID^d),Renal Cancer subpanel; Renal Cancer subpanel,1.27
same,TGI Subpanel MID^d,Renal Cancer subpanel; Renal Cancer subpanel average,16.6 µM
same,GI50,"[1]; Homo sapiens, Non-Small-Cell Lung Cancer subpanel average, read-out: GI50 Subpanel MID^b",2.74 µM
same,GI50 Selectivity Ratio (MID^a: MID^b),[1]; [3],0.87
same,TGI Selectivity Ratio (MID^c: MID^d),[1]; [3],1.31
same,TGI Subpanel MID^d,[1]; Non-Small-Cell Lung Cancer subpanel average,16.1 µM
same,GI50 Selectivity Ratio (MID^a: MID^b),Colon Cancer subpanel; Colon Cancer subpanel,1.24
same,TGI Selectivity Ratio (MID^c: MID^d),Colon Cancer subpanel; Colon Cancer subpanel,5.34
same,TGI Subpanel MID^d,Colon Cancer subpanel; Colon Cancer subpanel average,3.95 µM
same,GI50,"Colon Cancer subpanel; Colon Cancer subpanel average, read-out: GI50 Subpanel MID^b",1.91 µM
same,GI50,"Colon Cancer subpanel; colon cancer subpanel, read-out: GI50 values range, subpanel",1.78 to 2.13 µM
same,GI50,"Prostate Cancer subpanel; Homo sapiens, Prostate Cancer subpanel average, read-out: GI50 Subpanel MID^b",3.41 µM
same,GI50 Selectivity Ratio (MID^a: MID^b),Prostate Cancer subpanel; Prostate Cancer subpanel,0.69
same,TGI Selectivity Ratio (MID^c: MID^d),Prostate Cancer subpanel; Prostate Cancer subpanel,5.89
same,TGI Subpanel MID^d,Prostate Cancer subpanel; Prostate Cancer subpanel average,3.58 µM
same,GI50 Selectivity Ratio (MID^a: MID^b),Breast Cancer subpanel; Breast Cancer subpanel,1.05
same,TGI Selectivity Ratio (MID^c: MID^d),Breast Cancer subpanel; Breast Cancer subpanel,0.87
same,TGI Subpanel MID^d,Breast Cancer subpanel; Breast Cancer subpanel average,24.3 µM
same,GI50,"Breast Cancer subpanel; Breast Cancer subpanel average, read-out: GI50 Subpanel MID^b",2.27 µM
same,GI50,"Breast Cancer subpanel; breast cancer subpanel, read-out: GI50 values range, subpanel",1.54 to 1.87 µM
same,DNA Content % Comment,leukemia SR cells,significant growth arrest at the G2/M phase; also recorded: cell growth arrest (G2/M)
same,DNA Content % %G0-G1,leukemia SR cells,31.47%
same,DNA Content % %G2-M,leukemia SR cells,44.74 ± 0.1747 %
same,DNA Content % %Pre G1,leukemia SR cells,33.71%
same,DNA Content % %S,leukemia SR cells,23.79%
same,Bcl2 Fold Change,Bcl-2; relative to control,0.59 fold
same,Bcl2 Concentration,Bcl-2,5.045 ± 0.1918 ng/mL
same,TGI Concentration/Cell Line,HCT-116,3.66 µM
same,LC50,HCT-116; Homo sapiens,7.51 µM
same,GI50,HCT-116; [2],1.79 µM
same,BAX Fold Change,BAX; relative to control,~7.98 fold
same,BAX Concentration,BAX,359 ± 3.830 pg/mL
same,GI50,HOP-92; [2],1.91 µM
same,CC50,"HOP-92; Homo sapiens, read-out: LC50 (the source's name)",> 100 µM
same,TGI Concentration/Cell Line,HOP-92,9.14 µM
